Among the data in publication PMC9488889, “Insight into mode-of-action and structural determinants of the compstatin family of clinical complement inhibitors” (Nature Communications, 2022) are kd, kon and Kd values, retold here.

The target of this assay is T1, C3b (Homo sapiens, UniProt P01024).
T1 construct: the α’NT, MG6^α−8, anchor, and C-terminal complement (CTC) domains of the α-chain that are all shared between C3c and C3b; purchased Complement Technology (Tyler, TX, USA)
The experiment in a line: SPR kinetic binding studies on immobilized C3b. The conditions noted are these: for kd: Suppl. Fig. 7e, Cp40 analogs at position 5, three SPR experiments. Here is the method:
All compstatin analogues were characterized concerning affinity and kinetic profiles by surface plasmon resonance (SPR) using a Biacore T200 instrument (Cytiva, Piscataway, USA). Experiments were run at 25 °C in HBST buffer (10 mM HEPES, 150 mM NaCl, 0.05% Tween-20, pH 7.4). C3b was immobilized on a carboxymethyl dextran hydrogel chip (CMD200; XanTec, Düsseldorf, Germany) using standard amine coupling in sodium acetate buffer pH 4.5 at a flow rate of 10 µl/min. Immobilization densities of 8000 and 4000 resonance units (RU) were achieved on separate flow cells. A reference flow cell was activated with the same method (NHS/EDC). All active sites were inactivated and blocked with ethanolamine. A single cycle approach at a flow rate of 30 µl/min was used for kinetic analysis by injecting five increasing concentrations of each compound (0.5–40 nM) consecutively without regeneration in-between injections. Individual injections within a cycle were 120 s long with a 60 sec dissociation phase between injections. After the highest concentration of each derivative, a dissociation period of 6,000–14,400 sec was added to ensure complete dissociation in absence of suitable regeneration method. […] Signals from the reference cell from an ensemble of buffer blank injections were subtracted to correct for buffer effects and injection artefacts. Kinetic data was processed with the Biacore T200 Software (version 3.1; Cytiva) using a single-cycle evaluation setup by global fitting each data set to a 1:1 Langmuir binding model. Association and dissociation rate constants (ka and kd, respectively) were fitted, and the equilibration constant KD was calculated based on the following equation: KD = kd/ka. Each assay was performed at least twice and in duplicate injections.

Where [1] appears, read: pH 7.4, read-out: ka, Dataset 1.
[2] abbreviates: pH 7.4, read-out: ka, Dataset 2.
The mark [3] stands for this setting: pH 7.4, read-out: ka, Dataset 3.
Setting [4] is: Table 1, amine-reactive immobilized C3b, 25 °C, average±SD of three independent SPR experiments, read-out: KD.
[5] abbreviates: source data of Table 1, single SPR dataset 1, read-out: KD, Dataset 1.
Setting [6] is: source data of Table 1, single SPR dataset 2, read-out: KD, Dataset 2.
The mark [7] stands for this setting: source data of Table 1, single SPR dataset 3, read-out: KD, Dataset 3.

Like-named read-outs stand apart in the source and are kept apart here. Bridge positions count the residues as written; N and C are the ends. Square brackets hold non-standard residues; d marks the D form. Peptide text beside a SMILES is read from it. Trp(1-Me) = Cn1cc(C[C@H](N)C(=O)O)c2ccccc21; NMeI = CC[C@H](C)[C@H](NC)C(=O)O; Sar = CNCC(=O)O

T1 sequence (P01024 23-667 limits assumed): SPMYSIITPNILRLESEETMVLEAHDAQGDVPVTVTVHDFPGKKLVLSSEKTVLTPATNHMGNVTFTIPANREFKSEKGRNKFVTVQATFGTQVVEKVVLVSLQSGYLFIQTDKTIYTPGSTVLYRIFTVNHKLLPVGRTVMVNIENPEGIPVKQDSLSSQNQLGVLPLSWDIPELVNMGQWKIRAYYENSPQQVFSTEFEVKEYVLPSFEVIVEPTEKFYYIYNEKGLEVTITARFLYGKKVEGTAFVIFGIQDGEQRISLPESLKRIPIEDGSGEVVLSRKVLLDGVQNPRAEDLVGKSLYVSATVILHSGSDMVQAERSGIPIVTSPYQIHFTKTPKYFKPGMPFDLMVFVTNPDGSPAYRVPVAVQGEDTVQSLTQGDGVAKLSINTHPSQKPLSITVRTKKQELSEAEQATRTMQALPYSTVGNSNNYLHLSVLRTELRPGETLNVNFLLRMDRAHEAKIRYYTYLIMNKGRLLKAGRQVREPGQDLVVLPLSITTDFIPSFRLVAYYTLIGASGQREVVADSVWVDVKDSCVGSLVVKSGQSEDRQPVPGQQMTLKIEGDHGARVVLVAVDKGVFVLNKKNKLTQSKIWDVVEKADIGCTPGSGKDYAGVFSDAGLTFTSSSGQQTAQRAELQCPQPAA
T1 sequence (P01024 749-1663 limits assumed): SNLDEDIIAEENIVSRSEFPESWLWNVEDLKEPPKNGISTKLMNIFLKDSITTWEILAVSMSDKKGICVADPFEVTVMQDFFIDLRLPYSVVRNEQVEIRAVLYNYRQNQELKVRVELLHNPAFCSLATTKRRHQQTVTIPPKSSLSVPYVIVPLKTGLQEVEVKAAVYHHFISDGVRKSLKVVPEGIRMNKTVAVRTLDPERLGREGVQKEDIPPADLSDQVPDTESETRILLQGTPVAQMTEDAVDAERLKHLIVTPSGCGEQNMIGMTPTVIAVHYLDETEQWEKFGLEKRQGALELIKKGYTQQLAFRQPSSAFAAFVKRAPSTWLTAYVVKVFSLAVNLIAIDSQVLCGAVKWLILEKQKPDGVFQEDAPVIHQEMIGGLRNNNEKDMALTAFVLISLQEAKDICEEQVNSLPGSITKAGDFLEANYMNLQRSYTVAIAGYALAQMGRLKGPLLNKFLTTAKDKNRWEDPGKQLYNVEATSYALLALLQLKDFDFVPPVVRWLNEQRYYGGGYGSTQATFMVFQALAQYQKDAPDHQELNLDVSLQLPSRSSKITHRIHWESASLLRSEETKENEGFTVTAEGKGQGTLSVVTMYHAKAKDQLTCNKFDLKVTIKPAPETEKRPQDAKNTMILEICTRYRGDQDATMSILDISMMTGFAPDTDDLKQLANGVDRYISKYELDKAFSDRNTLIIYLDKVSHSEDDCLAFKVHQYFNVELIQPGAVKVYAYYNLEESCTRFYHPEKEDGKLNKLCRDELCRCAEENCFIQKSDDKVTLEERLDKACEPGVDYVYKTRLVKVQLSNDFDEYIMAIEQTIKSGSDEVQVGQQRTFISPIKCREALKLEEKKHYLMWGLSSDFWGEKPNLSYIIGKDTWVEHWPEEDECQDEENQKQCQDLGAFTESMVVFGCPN

Regarding `CC[C@H](C)[C@H](NC(=O)[C@H](N)Cc1ccc(O)cc1)C(=O)N[C@H]1CSSC[C@@H](C(=O)N(C)[C@H](C(N)=O)[C@@H](C)CC)NC(=O)[C@H](CCCNC(=N)N)NC(=O)[C@H](Cc2c[nH]cn2)NC(=O)[C@H](C)NC(=O)CN(C)C(=O)[C@H](Cc2c[nH]c3ccccc23)NC(=O)[C@H](CC(=O)O)NC(=O)[C@H](CCC(N)=O)NC(=O)[C@H](Cc2cn(CC)c3ccccc23)NC(=O)[C@H](C(C)C)NC1=O` [1EtW], the kd is 1.2 ± 0.3 10-3 s-1. Moreover, under “pH 7.4, read-out: ka”, the kon worked out at 700000 ± 300000 M⁻¹ s⁻¹.
In the case of `CCCCn1cc(C[C@@H]2NC(=O)[C@H](C(C)C)NC(=O)[C@@H](NC(=O)[C@@H](NC(=O)[C@H](N)Cc3ccc(O)cc3)[C@@H](C)CC)CSSC[C@@H](C(=O)N(C)[C@H](C(N)=O)[C@@H](C)CC)NC(=O)[C@H](CCCNC(=N)N)NC(=O)[C@H](Cc3c[nH]cn3)NC(=O)[C@H](C)NC(=O)CN(C)C(=O)[C@H](Cc3c[nH]c4ccccc34)NC(=O)[C@H](CC(=O)O)NC(=O)[C@H](CCC(N)=O)NC2=O)c2ccccc21` [1BuW], the kd is 0.5 ± 0.2 10-3 s-1. In addition, for the setting “pH 7.4, read-out: ka”, the kon came to 200000 M⁻¹ s⁻¹.
`CC[C@H](C)[C@H](NC(=O)[C@H](N)Cc1ccc(O)cc1)C(=O)N[C@H]1CSSC[C@@H](C(=O)N(C)[C@H](C(N)=O)[C@@H](C)CC)NC(=O)[C@H](CCCNC(=N)N)NC(=O)[C@H](Cc2c[nH]cn2)NC(=O)[C@H](C)NC(=O)CN(C)C(=O)[C@H](Cc2c[nH]c3ccccc23)NC(=O)[C@H](CCC(=O)O)NC(=O)[C@H](CCC(N)=O)NC(=O)[C@H](Cc2cn(C)c3ccccc23)NC(=O)[C@H](C(C)C)NC1=O` [Cp40 D7E] (H-[dY]ICV[Trp(1-Me)]QEW[Sar]AHRC[NMeI]-NH2; disulfide 3-13): the kon by setting is: (pH 7.4, read-out: ka) 900000 ± 200000 M⁻¹ s⁻¹; under setting [1], 1.17e+06 M⁻¹ s⁻¹; under setting [2], 650000 M⁻¹ s⁻¹; under setting [3], 730000 M⁻¹ s⁻¹.
In the same order, the values of `CC[C@H](C)[C@H](NC(=O)[C@H](N)Cc1ccc(O)cc1)C(=O)N[C@H]1CSSC[C@@H](C(=O)N(C)[C@H](C(N)=O)[C@@H](C)CC)NC(=O)[C@H](CCCNC(N)=O)NC(=O)[C@H](Cc2c[nH]cn2)NC(=O)[C@H](C)NC(=O)CN(C)C(=O)[C@H](Cc2c[nH]c3ccccc23)NC(=O)[C@H](CC(=O)O)NC(=O)[C@H](CCC(N)=O)NC(=O)[C@H](Cc2cn(C)c3ccccc23)NC(=O)[C@H](C(C)C)NC1=O` [Cp40 R12Cit] are 600000 ± 100000 M⁻¹ s⁻¹, 320000 M⁻¹ s⁻¹, 670000 M⁻¹ s⁻¹ and 790000 M⁻¹ s⁻¹.
`CC[C@H](C)[C@H](NC(=O)[C@H](N)Cc1ccc(O)cc1)C(=O)N[C@H]1CSSC[C@@H](C(=O)N(C)[C@H](C(N)=O)[C@@H](C)CC)NC(=O)[C@H](CCCNC(=N)N)NC(=O)[C@H](Cc2c[nH]cn2)NC(=O)[C@H](C)NC(=O)CNC(=O)[C@H](Cc2c[nH]c3ccccc23)NC(=O)[C@H](CC(=O)O)NC(=O)[C@H](CCC(N)=O)NC(=O)[C@H](Cc2cn(C)c3ccccc23)NC(=O)[C@H](C(C)C)NC1=O` [Cp40 Sar9G]: the Kd is, setting by setting: under setting [4], 0.0017 ± 0.0007 µM; under setting [5], 0.00092 µM; under setting [6], 0.00139 µM; under setting [7], 0.00263 µM. Besides, the kon turned out to be 900000 ± 400000 M⁻¹ s⁻¹ (pH 7.4, read-out: ka); 1.29e+06 M⁻¹ s⁻¹ under setting [1]; 1.1e+06 M⁻¹ s⁻¹ under setting [2]; 360000 M⁻¹ s⁻¹ under setting [3].
Consider `CC[C@H](C)[C@H](NC(=O)[C@H](N)Cc1ccc(O)cc1)C(=O)N[C@H]1CSSC[C@@H](C(N)=O)NC(=O)[C@H](CCCNC(=N)N)NC(=O)[C@H](Cc2c[nH]cn2)NC(=O)[C@H](C)NC(=O)CN(C)C(=O)[C@H](Cc2c[nH]c3ccccc23)NC(=O)[C@H](CC(=O)O)NC(=O)[C@H](CCC(N)=O)NC(=O)[C@H](Cc2cn(C)c3ccccc23)NC(=O)[C@H](C(C)C)NC1=O` [Cp40 ΔmI14] (H-[dY]ICV[Trp(1-Me)]QDW[Sar]AHRC-NH2; disulfide 3-13), for which the kon runs as follows: (pH 7.4, read-out: ka) 1.5e+06 ± 200000 M⁻¹ s⁻¹; under setting [1], 1.41e+06 M⁻¹ s⁻¹; under setting [2], 1.28e+06 M⁻¹ s⁻¹; under setting [3], 1.8e+06 M⁻¹ s⁻¹.
In the case of `CC[C@H](C)[C@H](NC(=O)[C@H](N)Cc1ccc(O)cc1)C(=O)N[C@H]1CSSC[C@@H](C(=O)N(C)[C@H](C(N)=O)[C@@H](C)CC)NC(=O)[C@H](CO)NC(=O)[C@H](Cc2c[nH]cn2)NC(=O)[C@H](C)NC(=O)CN(C)C(=O)[C@H](Cc2c[nH]c3ccccc23)NC(=O)[C@H](CC(=O)O)NC(=O)[C@H](CCC(N)=O)NC(=O)[C@H](Cc2cn(C)c3ccccc23)NC(=O)[C@H](C(C)C)NC1=O` [Cp40 R12S] (H-[dY]ICV[Trp(1-Me)]QDW[Sar]AHSC[NMeI]-NH2; disulfide 3-13), the Kd came out at 0.0099 ± 0.0005 µM under setting [4], 0.0102 µM under setting [5], 0.0103 µM under setting [6] and 0.00922 µM under setting [7]. The kon reads like this: (pH 7.4, read-out: ka) 200000 M⁻¹ s⁻¹; under setting [1], 140000 M⁻¹ s⁻¹; under setting [2], 180000 M⁻¹ s⁻¹; under setting [3], 220000 M⁻¹ s⁻¹.
Regarding `CC[C@H](C)[C@H](NC(=O)[C@H](N)Cc1ccc(O)cc1)C(=O)N[C@H]1CSSC[C@@H](C(=O)N(C)[C@H](C(N)=O)[C@@H](C)CC)NC(=O)[C@H](CCCNC(=N)N)NC(=O)[C@H](Cc2c[nH]cn2)NC(=O)[C@H](C)NC(=O)CN(C)C(=O)[C@H](Cc2c[nH]c3ccccc23)NC(=O)[C@H](CC(=O)O)NC(=O)[C@H](CCC(N)=O)NC(=O)[C@H](Cc2cn(CCC(C)C)c3ccccc23)NC(=O)[C@H](C(C)C)NC1=O` [1(3Me)BuW], the kd is 0.7 ± 0.0 10-3 s-1. In addition, the kon (pH 7.4, read-out: ka) worked out at 200000 M⁻¹ s⁻¹.
Turning to `CC[C@H](C)[C@H](NC(=O)[C@H](N)Cc1ccc(O)cc1)C(=O)N[C@H]1CSSC[C@@H](C(=O)N(C)[C@H](C(N)=O)[C@@H](C)CC)NC(=O)[C@H](CCCNC(=N)N)NC(=O)[C@H](Cc2c[nH]cn2)NC(=O)[C@H](C)NC(=O)CN(C)C(=O)[C@H](Cc2c[nH]c3ccccc23)NC(=O)[C@H](CC(=O)O)NC(=O)[C@H](CCC(N)=O)NC(=O)[C@H](Cc2c[nH]c3ccccc23)NC(=O)[C@H](C(C)C)NC1=O` [Cp40 (1MeW)5 W], the kon runs as follows: (pH 7.4, read-out: ka) 200000 M⁻¹ s⁻¹; under setting [1], 130000 M⁻¹ s⁻¹; under setting [2], 150000 M⁻¹ s⁻¹; under setting [3], 180000 M⁻¹ s⁻¹.
With `CC[C@H](C)[C@H](NC(=O)[C@H](N)Cc1ccc(O)cc1)C(=O)N[C@H]1CSSC[C@@H](C(=O)N(C)[C@H](C(N)=O)[C@@H](C)CC)NC(=O)[C@H](CCCCN)NC(=O)[C@H](Cc2c[nH]cn2)NC(=O)[C@H](C)NC(=O)CN(C)C(=O)[C@H](Cc2c[nH]c3ccccc23)NC(=O)[C@H](CC(=O)O)NC(=O)[C@H](CCC(N)=O)NC(=O)[C@H](Cc2cn(C)c3ccccc23)NC(=O)[C@H](C(C)C)NC1=O` [Cp40 R12K] (H-[dY]ICV[Trp(1-Me)]QDW[Sar]AHKC[NMeI]-NH2; disulfide 3-13), the kon under setting [1] was 630000 M⁻¹ s⁻¹, the kon under setting [2] is 470000 M⁻¹ s⁻¹ and the kon under setting [3] stood at 780000 M⁻¹ s⁻¹.
As for `CC[C@H](C)[C@H](NC(=O)[C@H](N)Cc1ccc(O)cc1)C(=O)N[C@H]1CSSC[C@@H](C(=O)N(C)[C@H](C(N)=O)[C@@H](C)CC)NC(=O)[C@H](CO)NC(=O)[C@H](Cc2c[nH]cn2)NC(=O)[C@H](C)NC(=O)CN(C)C(=O)[C@H](Cc2c[nH]c3ccccc23)NC(=O)[C@H](CO)NC(=O)[C@H](CCC(N)=O)NC(=O)[C@H](Cc2cn(C)c3ccccc23)NC(=O)[C@H](C(C)C)NC1=O` [Cp40 D7S/R12S] (H-[dY]ICV[Trp(1-Me)]QSW[Sar]AHSC[NMeI]-NH2; disulfide 3-13), the Kd by setting is: under setting [4], 0.0591 ± 0.0413 µM; under setting [5], 0.117 µM; under setting [6], 0.0347 µM; under setting [7], 0.0255 µM. Further, the kon is 100000 M⁻¹ s⁻¹ (pH 7.4, read-out: ka); 20000 M⁻¹ s⁻¹ under setting [1]; 120000 M⁻¹ s⁻¹ under setting [2]; 220000 M⁻¹ s⁻¹ under setting [3].
